Patent publication EP4722208A1, “NOVEL BENZAMIDE DERIVATIVE COMPOUND AND PHARMACEUTICAL COMPOSITION COMPRISING SAME” (Samjin Pharmaceutical Co., Ltd., priority 2023, dated 2024)

Assays:
[1] = system: HCT116 colorectal cancer cell lines; assay: Tumor cytotoxicity assay (MTT); format: cell-based; conditions: Homo sapiens, HCT-116, HCT116 cells, 72 hours treatment, 0.1 nM to 1000 nM
Procedure: The anticancer efficacy of the compound of the present invention was evaluated using the MTT analysis method in HCT116 colorectal cancer cell lines. The cells were incubated using DMEM medium containing 10% FBS. The cells were distributed in a 96-well plate at a density of 2,500 cells per well, the HCT116 cells were incubated for 24 hours, and then treated with a drug using a serum free DMEM. First, a compound was prepared in 100% dimethyl sulfoxide (DMSO) at a concentration of 0.02 µM to 200 µM, diluted in the culture medium so that the final concentration of DMSO might reach 0.5%, and treated with the drug so that the final concentration of the compound might range from 0.1 nM to 1000 nM. After that, they were further incubated for 72 hours at 37°C and CO2 5% and treated with MTT (Sigma-Aldrich, M2128) to confirm cytotoxicity. Formazan produced from reduction by enzymes in the mitochondria of living cells was measured using Spark® Multimode Microplate Reader TECAN equipment. A cell viability (%) was relatively determined by subtracting a reference 650 nm optical density (O.D.) from 570 nm O.D., in which the 0.5% DMSO-treated control was set as a standard of 100%. […]

[2] = target: T1, Recombinant NAMPT protein (Homo sapiens, UniProt P43490); assay: NAMPT enzyme inhibition assay (BPS bioscience NAMPT Inhibitor Screening Assay Kit, fluorescence); format: biochemical; conditions: 30 min pre-incubation, 2 h at 30°C, compound 1000 nM to 3 nM, n=2
T1 construct: purchased BPS bioscience # 7176-1
T1 sequence (P43490 whole entry): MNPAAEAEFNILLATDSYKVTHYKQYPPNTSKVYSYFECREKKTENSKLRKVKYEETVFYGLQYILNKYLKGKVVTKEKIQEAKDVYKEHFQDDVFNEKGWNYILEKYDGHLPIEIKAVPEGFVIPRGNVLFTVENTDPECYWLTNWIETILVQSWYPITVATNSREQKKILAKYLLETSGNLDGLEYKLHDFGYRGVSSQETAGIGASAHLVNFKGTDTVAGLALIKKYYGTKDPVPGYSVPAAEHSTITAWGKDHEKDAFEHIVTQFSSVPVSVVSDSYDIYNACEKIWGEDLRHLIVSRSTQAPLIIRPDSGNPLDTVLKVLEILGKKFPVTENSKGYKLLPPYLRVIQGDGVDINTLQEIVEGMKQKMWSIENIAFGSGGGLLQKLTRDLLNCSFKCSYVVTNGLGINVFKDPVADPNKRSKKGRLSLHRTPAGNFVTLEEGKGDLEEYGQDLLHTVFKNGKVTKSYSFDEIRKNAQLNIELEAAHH
Procedure: The NAMPT enzyme activity inhibition ability of the compound of the present invention was evaluated using the NAMPT Inhibitor Screening Assay Kit (# 7176-1) from BPS bioscience. Recombinant NAMPT protein was added to each well of a black 96-well plate, and dilution buffer was added to a blank well instead of NAMPT protein. A 5 x concentrated compound solution was added and pre-incubated at room temperature (approximately 22°C) for 30 minutes before the start of the reaction so that the compound and protein might bind before the enzyme reaction. At this time, the concentration of NAMPT protein was adjusted and used according to the enzyme activity of each protein lot within the final concentration range of 4-10 ng/µl, and the test compound was serially diluted at a ratio of 1:3 from 1000 nM to 3 nM, and experiments were conducted with n=2 for about seven concentrations. A 2 x concentrated test buffer containing ATP (final concentration of 20 µM), nicotinamide (final concentration of 20 µM), phosphoribosyl pyrophosphate (PRPP, final concentration of 40 µM), and ethanol (final concentration of 1.5%) was added, and the plate was incubated at 30°C for two hours, after which the fluorescence of a resulting reaction product was measured with excitation of 340 nm and emission of 460 nm. The NAMPT enzyme activity (%) was calculated by subtracting the measurement value of the blank well without NAMPT protein from the measurement value of all wells, and then taking the measurement value of the control well without the compound as 100%.

[3] = system: HCT-116 cell lines; assay: Cellular NAD measurement assay (NAD/NADH-Glo Assay); format: cell-based; conditions: Homo sapiens; intracellular NAD+/NADH levels, HCT-116 cells, 24 hours treatment, 0.1 nM to 100 nM
Procedure: With regard to HCT-116 cell lines, the decrease in intracellular NAD+ and NADH levels due to the inhibition of NAMPT enzyme activity by compounds was evaluated using the product of NAD/NADH-Glo™ Assay (Promega, G9072) from Promega. The cells were incubated using DMEM (Gibco, 11995-065) medium containing 10% FBS. The HCT-116 cells were incubated for 24 hours after being distributed at a density of 2,500 cells per well in a 96-well plate, and were treated with a drug using a serum-free DMEM. First, a compound was dissolved in 100% dimethyl sulfoxide (DMSO), and then diluted in the culture medium so that the final concentration of DMSO might reach 0.5%, and treated with the drug. The final concentration range of the compounds was 0.1 nM to 100 nM. After that, they were further incubated for 24 hours at 37°C and CO2 5%. To conduct the NAD/NADH-Glo™ Assay, the culture medium of drug-treated cells was removed, and 50 µL of DPBS was treated per well, and left at room temperature for five minutes. The required amount of NAD/NADH-Glo™ Detection Reagent (Reconstituted Luciferin Detection Reagent 1 mL, Reductase 5 µL, Reductase Substrate 5 µL, NAD Cycling Enzyme 5 µL, NAD Cycling Substrate 25 µL) was prepared according to the manufacturer's manual and treated in an amount of 50 µL per well. After incubating for two minutes at 400 rpm in a plate shaker for cell lysis, the cells were incubated for 30 minutes at room temperature, and luminescence was measured. NAD+/NADH levels were calculated by subtracting the measurement value of the blank well without cells from the measurement value of all wells and taking the 0.5% DMSO-treated control as 100%.

Compound | CC50 [1] [nM] | IC50 [2] [nM] | IC50 [3] [nM]
O=C(NCc1ccn2ccnc2c1)c1ccc(S(=O)(=O)Cc2cc[nH]n2)c(C#Cc2ccc(F)cc2)c1 [compound 234, 4-(((1H-pyrazol-3-yl)methyl)sulfonyl)-3-((4-fluorophenyl)ethynyl)-N-(imidazo[1,2-a]pyridin-7-ylmethyl)benzamide] | ≤ 30 | < 500 | –
O=C(NCCCc1cn[nH]c1)c1ccc(S(=O)(=O)Cc2ccn(-c3ccncc3)n2)c(C#Cc2ccc(F)cc2)c1 [compound 10, N-(3-(1H-pyrazol-4-yl)propyl)-3-((4-fluorophenyl)ethynyl)-4-(((1-(pyridin-4-yl)-1H-pyrazol-3-yl)methyl)sulfonyl)benzamide] | ≤ 30 | < 500 | ≤ 10
Nc1ccc(CS(=O)(=O)c2ccc(C(=O)NCc3ccn4ccnc4c3)cc2C#Cc2ccc(F)cc2)cc1 [compound 148, 4-((4-aminobenzyl)sulfonyl)-3-((4-fluorophenyl)ethynyl)-N-(imidazo[1,2-a]pyridin-7-ylmethyl)benzamide] | 100 to 1000 | < 500 | –
Cn1ccc(CS(=O)(=O)c2ccc(C(=O)NCc3cnc4nccn4c3)cc2C#Cc2ccc(F)cc2)n1 [compound 238, 3-((4-fluorophenyl)ethynyl)-N-(imidazo[1,2-a]pyrimidin-6-ylmethyl)-4-(((1-methyl-1H-pyrazol-3-yl)methyl)sulfonyl)benzamide] | 100 to 1000 | < 500 | –
Cn1ccc(CS(=O)(=O)c2ccc(C(=O)NCc3ccn4ccnc4c3)cc2C#Cc2ccc(N)c(F)c2)n1 [compound 241, 3-((4-amino-3-fluorophenyl)ethynyl)-N-(imidazo[1,2-a]pyridin-7-ylmethyl)-4-(((1-methyl-1H-pyrazol-3-yl)methyl)sulfonyl)benzamide] | ≤ 30 | < 500 | –
Cn1ccc(CS(=O)(=O)c2ccc(C(=O)NCc3ccn4ccnc4c3)cc2C#Cc2cccc(N)c2)n1 [compound 229, 3-((3-aminophenyl)ethynyl)-N-(imidazo[1,2-a]pyridin-7-ylmethyl)-4-(((1-methyl-1H-pyrazol-3-yl)methyl)sulfonyl)benzamide] | ≤ 30 | < 500 | ≤ 10
Cn1ccc(CS(=O)(=O)c2ccc(C(=O)NCc3ccn4ccnc4c3)cc2C#Cc2cccc(CN)c2)n1 [compound 232, 3-((3-(aminomethyl)phenyl)ethynyl)-N-(imidazo[1,2-a]pyridin-7-ylmethyl)-4-(((1-methyl-1H-pyrazol-3-yl)methyl)sulfonyl)benzamide] | ≤ 30 | < 500 | –
Cn1ccc(CS(=O)(=O)c2ccc(C(=O)NCc3ccn4ccnc4c3)cc2C#Cc2cccc(C(=O)N3CCNCC3)c2)n1 [compound 230, N-(imidazo[1,2-a]pyridin-7-ylmethyl)-4-(((1-methyl-1H-pyrazol-3-yl)methyl)sulfonyl)-3-((3-(piperazine-1-carbonyl)phenyl)ethynyl)benzamide] | 100 to 1000 | < 500 | 10 to 1000
Cn1ccc(CS(=O)(=O)c2ccc(C(=O)NCCCc3cn[nH]c3)cc2C#Cc2ccc(F)cc2)n1 [compound 1, N-(3-(1H-pyrazol-4-yl)propyl)-3-((4-fluorophenyl)ethynyl)-4-(((1-methyl-1H-pyrazol-3-yl)methyl)sulfonyl)benzamide] | ≤ 30 | < 500 | ≤ 10
Cn1ccc(CS(=O)(=O)c2ccc(C(=O)NCc3ccn4ccnc4c3)cc2C#Cc2ccc(F)cc2)n1 [compound 2, 3-((4-fluorophenyl)ethynyl)-N-(imidazo[1,2-a]pyridin-7-ylmethyl)-4-(((1-methyl-1H-pyrazol-3-yl)methyl)sulfonyl)benzamide] | ≤ 30 | < 500 | ≤ 10
Cn1ccc(CS(=O)(=O)c2ccc(C(=O)NCc3ccn4ccnc4c3)cc2C#Cc2ccc(N)cc2)n1 [compound 228, 3-((4-aminophenyl)ethynyl)-N-(imidazo[1,2-a]pyridin-7-ylmethyl)-4-(((1-methyl-1H-pyrazol-3-yl)methyl)sulfonyl)benzamide] | ≤ 30 | < 500 | ≤ 10
